Data from paper PMC10205807, “Cross-species comparison in nonclinical pharmacokinetics of lenvatinib by a simple HPLC with ultraviolet detection” (Scientific Reports, 2023).

Assays:
[1] = PK study in monkeys (intravenous and oral); format: in vivo, cynomolgus monkeys
Method: Male cynomolgus monkeys were supplied from Prestasi Fauna Nusantara Ltd. (Jakarta, Indonesia) and were housed at Shin Nippon Biomedical Laboratories, Ltd. The PK study was performed in a cross-over design with 7 days interval between the doses for monkeys aged 3–4 years old. Monkeys were fasted a day before the PK study and feeding was resumed 4 h postdose. Dosing solution of lenvatinib used was the same as that in the other animal PK studies. Lenvatinib was intravenously administered at the dose of 3 mg/kg via cephalic vein. In oral administration, lenvatinib at 3 mg/kg was dosed by using a nasogastric catheter, followed by giving 30 mL of water to flush the remaining dosing solution in the catheter. The number of monkeys at each dose was four. Approximately 0.5 mL of blood samples were serially collected from the femoral vein using a heparinized syringe at pre-dose, and at 5, 15 and 30 min, and 1, 2, 4, 6, 8, 12 and 24 h post-dose. Plasma sample preparation and sample storage were the same as those in the other PK studies.
(§1) PK parameters of lenvatinib were estimated by model independent analysis using a WinNonlin program (Version 4.1, Pharsight Corporation, Mountain View, CA). The time to reach the maximum plasma concentration (Tmax) and the maximum plasma concentration (Cmax) values were obtained directly from the plasma concentration data. Terminal half-life (T1/2) was calculated by ln2/ke, where ke is the slope of the regression line that fits the portion of the terminal phase (at least three time points) in the log-linear concentration–time curve. AUC0–t and AUMC0–t, the area under the concentration–time curves and the area under the first moment curve, from time = zero to time = t, respectively, were calculated using the lenvatinib concentrations in plasma by the linear/log trapezoidal method. AUC0–inf was calculated by AUC0–t + Ct/ke, and AUMC0–inf was AUMC0–t + Ct × t/ke + Ct/(ke)^2, where Ct is the last measurable concentration at time = t. The plasma concentration at time zero for the intravenous dose was extrapolated, while zero was used for the oral doses. Mean residence time (MRT), total plasma clearance (CLtot) and the volume of distribution at steady state (Vdss) were calculated by AUMC0–inf/AUC0–inf, Dose/AUC0–inf and CLtot × MRT, respectively. Oral bioavailability (F) was estimated by comparing dose-normalized AUC0–inf after oral (AUC0–inf.po) and intravenous (AUC0–inf.iv) administration as follows: F (%) = (AUC0–inf.po/AUC0–inf.iv) × 100.

[2] = test system: plasma protein; test: plasma unbound fraction, humans; format: in vitro ADME; conditions: human
[3] = Cross-species PK summary (mice, rats, dogs, monkeys); format: in vivo, and monkeys; conditions: for bioavailability: rat, rats
Method: as §1
One of the typical approaches for predicting human PK from animal PK is empirical allometric scaling. As the CLtot of lenvatinib was relatively low and Vdss of lenvatinib was low to medium, thus it is theoretically preferable to correct by fp for both parameters. The CLtot divided by fp (CLtot/fp) or Vdss divided by fp (Vdss/fp) were plotted against body weight (BW) by log–log scale, and a linear regression was performed to estimate a slope and intercept for linear regression. The BW used in the calculation was 0.02, 0.2, 10, 5, and 70 kg for mice, rats, dogs, monkeys, and humans, respectively. CLtot and Vdss of lenvatinib in humans were predicted by using the regression line and the BW of humans. As no PK data of lenvatinib are available for CLtot and Vdss, which can be estimated only from intravenous administration PK study in humans, it is not possible to assess predictability of the allometric scaling for these two parameters of lenvatinib in humans. However, it is possible to predict exposure of lenvatinib after oral administration (AUCoral) in humans from the allometry scaling of hepatic intrinsic clearance (CLint). As lenvatinib is mainly cleared by the liver, AUCoral is estimated by Fa × Fg × Dose/(fp × CLint)[9], where Fa, Fg, fp, and CLint are absorption at the gastrointestinal (GI) tract, metabolic availability at the GI, unbound fraction in plasma, and hepatic intrinsic clearance, respectively. The CLint is thus estimated by Fa × Fg × Dose/(fp × AUCoral) in all the animal species including humans just from PK data from oral administration. The allometric scaling approach was applied for CLint in mice, rats, dogs, and monkeys. The logarithmic plot of CLint and BW was performed for a linear regression and a regression line [log (CLint) = slope × log (BW) + intercept], which was derived by logarithmic transformation of the equation CLint = a × BW^b was obtained. The CLint predicted from the allometric scaling was compared to the observed CLint after oral administration of lenvatinib at 9 mg in humans.

[4] = male, cynomolgus monkey, plasma, intravenous 3 mg/kg
[5] = male, cynomolgus monkey, plasma, oral 3 mg/kg
[6] = male, cynomolgus, cynomolgus monkey, plasma, oral 3 mg/kg

CLint (hepatic intrinsic clearance) ([1]; estimated from oral PK, Fa and Fg assumed unity, BW 5 kg): 37,063 mL/h
MRT [1, 4]: 3.32 ± 0.15 h
half-life [1, 4]: 4.28 ± 0.34 h
Cmax [1, 5]: 2500 ± 450 ng/mL
MRT [1, 5]: 4.23 ± 0.31 h
Tmax ([1]; male, cynomolgus monkey, plasma, oral 3 mg/kg, median (range)): 2 h
AUC(0-inf) ([1]; male, cynomolgus, cynomolgus monkey, plasma, intravenous 3 mg/kg): 12900 ± 1060 ng·h/mL
C0 ([1]; male, cynomolgus, cynomolgus monkey, plasma, intravenous 3 mg/kg, extrapolated): 5170 ± 949 ng/mL
clearance ([1]; male, cynomolgus, cynomolgus monkey, plasma, intravenous 3 mg/kg, read-out: CLtot (converted)): 3.97 mL/min/kg
Vd ([1]; male, cynomolgus, cynomolgus monkey, plasma, intravenous 3 mg/kg, read-out: Vdss): 0.794 ± 0.0882 L/kg
AUC(0-inf) [1, 6]: 10300 ± 1510 ng·h/mL
half-life [1, 6]: 4.07 ± 0.29 h
bioavailability ([1]; male, cynomolgus, cynomolgus monkey, plasma, oral 3 mg/kg vs intravenous 3 mg/kg, read-out: F (oral bioavailability)): 78.4 ± 5.4%
fraction unbound [2]: 0.0172
availability in the intestine ([3]; calculated from CLtot (iv), blood-to-plasma partition, hepatic blood flow, and bioavailability): > 0.7
clearance ([3]; mouse, dog, monkey, plasma, the other three species (mice, dogs, monkeys), intravenous 3 mg/kg, read-out: CLtot): 3.97 to 6.13 mL/min/kg
bioavailability ([3]; mouse, dog, monkey, plasma, oral, 3 mg/kg, mice, dogs, monkeys, read-out: average bioavailability in the four species): 70%
bioavailability ([3]; mouse, dog, monkey, plasma, po, 3 mg/kg, range over mice, dogs, and monkeys, read-out: oral bioavailability): 64.4 to 78.4%
bioavailability ([3]; mouse, dog, monkey, plasma, po, range over mice, dogs, and monkeys, read-out: oral bioavailability): 64 to 78%
Compound: COc1cc2nccc(Oc3ccc(NC(=O)NC4CC4)c(Cl)c3)c2cc1C(N)=O [lenvatinib, Lenvatinib]
